Blank lines part the entries; values can stand above or below the compound they belong to.
Assays:
delta opioid = delta opioid (Homo sapiens, UniProt P41143); assay: SelectScreen cell-based GPCR assay, delta opioid; details: 10 µM
From the text: (§1) Profiling of compound activity versus a select panel of diverse GPCRs was undertaken by ThermoFisher Scientific (United Kingdom) via their SelectScreen cell-based GPCR assay panel. Detailed experimental protocols on this assay platform can be found at (https://www.thermofisher.com/content/dam/LifeTech/migration/en/filelibrary/services/discovery-research/pdfs.par.36410.file.dat/sscg-brochure.pdf). Briefly these assays detect agonist or antagonist activity using cell lines with the GPCR of interest over-expressed, driving the expression of a reporter gene encompassing a mammalian-optimized Beta-lactamase. Test compounds are incubated with the specific cell lines at the defined final concentration for 5 or 16 h (depending on the cell line specifics) before quantification of effect.

5-HT2B = 5-HT2B (Homo sapiens, UniProt P41595); assay: SelectScreen cell-based GPCR assay, 5-HT2B; details: 10 µM
5-HT2B, sequence (P41595 whole entry): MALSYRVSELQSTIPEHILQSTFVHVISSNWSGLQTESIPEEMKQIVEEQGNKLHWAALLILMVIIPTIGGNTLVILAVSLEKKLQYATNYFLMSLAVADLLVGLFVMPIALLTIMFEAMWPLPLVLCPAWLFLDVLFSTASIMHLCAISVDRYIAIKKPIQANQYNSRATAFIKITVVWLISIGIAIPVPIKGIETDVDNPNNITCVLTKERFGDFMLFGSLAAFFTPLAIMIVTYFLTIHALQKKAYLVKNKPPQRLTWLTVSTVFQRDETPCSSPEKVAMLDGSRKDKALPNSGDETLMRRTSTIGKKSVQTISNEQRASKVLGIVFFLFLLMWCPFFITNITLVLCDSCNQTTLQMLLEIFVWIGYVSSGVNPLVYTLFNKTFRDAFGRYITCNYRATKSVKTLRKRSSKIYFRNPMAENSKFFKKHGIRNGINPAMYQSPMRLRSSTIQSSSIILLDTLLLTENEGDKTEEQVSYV
From the text: as §1

[1] = test system: human bronchial smooth muscle; details: cited from earlier work
[2] = cited from earlier work
[3] = test system: human vascular smooth muscle preparations; details: ref Papp et al., 2019; Danahay et al., 2020b; cited from earlier work

delta opioid, sequence (P41143 whole entry): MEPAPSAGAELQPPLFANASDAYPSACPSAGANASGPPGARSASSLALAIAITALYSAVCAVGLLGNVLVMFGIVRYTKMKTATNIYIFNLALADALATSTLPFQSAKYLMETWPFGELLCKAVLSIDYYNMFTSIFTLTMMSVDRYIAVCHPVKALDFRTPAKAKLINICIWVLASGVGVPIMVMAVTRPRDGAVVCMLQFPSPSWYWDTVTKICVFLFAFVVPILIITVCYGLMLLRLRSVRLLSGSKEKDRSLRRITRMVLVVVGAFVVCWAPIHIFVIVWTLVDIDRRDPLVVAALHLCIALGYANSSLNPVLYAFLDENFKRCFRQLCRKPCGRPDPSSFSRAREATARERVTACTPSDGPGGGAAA

- inhibition of delta opioid (delta opioid): ≥ 50%
- inhibition of 5-HT2B (5-HT2B): ≥ 50%
Compound: COc1ccccc1/C=N/NC(=O)COc1ccc(Cl)cc1C [Ani9]

Compound: ETX001
- effect on freshly isolated human bronchial smooth muscle tone [1]: no effect
- effect on lung function in vivo [2]: no effect

Compound: CCc1c(C)nc(SCC(=O)Nc2nc(-c3ccc(OC)cc3)cs2)[nH]c1=O [T16Ainh-A01]
- activity in human vascular smooth muscle preparations [3]: failed to show activity
